Experimental data reported in patent US7253281B2, “Anti-obesity 1,2,3,4,10,10a-hexahydropyrazino[1,2-a]indoles” (Hoffmann-La Roche Inc., priority 2000, dated 2007).
pEC50, pKi: −log10 of the molar value. Values belong to the compound of their own block, whether it stands above or below them.

What was measured:
[1] = biological target: T1, 5-HT2C receptors in a CHO cell line (Homo sapiens, UniProt P28335); assay: Binding to 5-HT2C receptor, [3H]-5-HT, Method (a); settings: read-out: Ki (2C)
T1 construct: expressed in transfected cells; host or cells: CHO cell line
T1 sequence (P28335 33-458): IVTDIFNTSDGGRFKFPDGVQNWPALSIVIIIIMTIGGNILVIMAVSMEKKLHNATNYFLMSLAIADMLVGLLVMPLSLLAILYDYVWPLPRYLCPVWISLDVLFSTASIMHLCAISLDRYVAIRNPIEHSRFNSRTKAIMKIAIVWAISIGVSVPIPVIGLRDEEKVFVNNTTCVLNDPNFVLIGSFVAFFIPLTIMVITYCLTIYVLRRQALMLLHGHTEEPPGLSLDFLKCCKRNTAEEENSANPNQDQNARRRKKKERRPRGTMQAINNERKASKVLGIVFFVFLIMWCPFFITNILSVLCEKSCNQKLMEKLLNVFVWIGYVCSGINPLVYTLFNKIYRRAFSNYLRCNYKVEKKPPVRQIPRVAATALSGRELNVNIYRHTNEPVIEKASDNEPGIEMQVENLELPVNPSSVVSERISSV
Description: (§1) The binding of compounds of formula (I) to serotonin receptors was determined in vitro by standard methods. The preparations were investigated in accordance with the assays given hereinafter.
Method (a): For the binding to the 5-HT2C receptor the 5-HT2C receptors were radiolabeled with [^3H]-5-HT. The affinity of the compounds for 5-HT2C receptors in a CHO cell line was determined according to the procedure of D. Hoyer, G. Engel and H. O. Kalkman, European J. Pharmacol., 1985, 118, 13–23.

[2] = biological target: T2, human 5-HT2B receptors in a CHO cell line (Homo sapiens, UniProt P41595); assay: Binding to 5-HT2B receptor, [3H]-5-HT, Method (b); settings: read-out: Ki (2B)
T2 construct: expressed in transfected cells; host or cells: CHO cell line
Description: as §1
Method (b): For the binding to the 5-HT2B receptor the 5-HT2B receptors were radiolabeled with [^3H]-5-HT. The affinity of the compounds for human 5-HT2B receptors in a CHO cell line was determined according to the procedure of K. Schmuck, C. Ullmer, P. Engels and H. Lubbert, FEBS Lett., 1994, 342, 85–90.

[3] = biological target: T3, 5-HT2A receptors in a CHO cell line (Homo sapiens, UniProt P28223); assay: Binding to 5-HT2A receptor, [125I]-DOI, Method (c); settings: read-out: Ki (2A)
T3 construct: expressed in transfected cells; host or cells: CHO cell line
Description: as §1
Method (c): For the binding to the 5-HT2A receptor the 5-HT2A receptors were radiolabeled with [^125I]-DOI. The affinity of the compounds for 5-HT2A receptors in a CHO cell line was determined according to the procedure of D. J. McKenna and S. J. Peroutka, J. Neurosci., 1989, 9, 3482–90.

[4] = biological target: T4, human 5-HT2C receptor (CHO cells) (Homo sapiens, UniProt P28335); assay: Functional activity, FLIPR calcium assay, h5-HT2C; type: cell-based
T4 construct: expressed in transfected cells; host or cells: CHO cells
T4 sequence (P28335 33-458): T1 sequence (P28335 33-458)
Description: (§2) The functional activity of compounds of formula (I) was assayed using a Fluorimetric Imaging Plate reader (FLIPR). CHO cells expressing the human 5-HT2C or human 5-HT2A receptors were counted and plated into standard 96 well microtitre plates on the day before testing to give a confluent monolayer. The cells were then dye loaded with the calcium sensitive dye, Fluo-3-AM. Unincorporated dye was removed using an automated cell washer to leave a total volume of 100 μL/well of assay buffer (Hanks balanced salt solution containing 20 mM Hepes and 2.5 mM probenecid). The drug (dissolved in 50 μL of the assay buffer) was added at a rate of 70 μL/sec to each well of the FLIPR 96 well plate during fluorescence measurements. The measurements were taken at 1 sec intervals and the maximum fluorescent signal was measured (approx 10–15 secs after drug addition) and compared with the response produced by 10 μM 5-HT (defined as 100%) to which it was expressed as a percentage response (relative efficacy). Dose response curves were constructed using Graphpad Prism (Graph Software Inc.).

[5] = biological target: T5, human 5-HT2A receptor (CHO cells) (Homo sapiens, UniProt P28223); assay: Functional activity, FLIPR calcium assay, h5-HT2A; type: cell-based
T5 construct: expressed in transfected cells; host or cells: CHO cells
Description: as §2

[6] = biological target: h5-HT2B (Homo sapiens, UniProt P41595); assay: Functional activity, FLIPR calcium assay, h5-HT2B; type: cell-based
[7] = relative to response of 10 μM 5-HT (100%)

Chain of h5-HT2B (P41595 whole entry): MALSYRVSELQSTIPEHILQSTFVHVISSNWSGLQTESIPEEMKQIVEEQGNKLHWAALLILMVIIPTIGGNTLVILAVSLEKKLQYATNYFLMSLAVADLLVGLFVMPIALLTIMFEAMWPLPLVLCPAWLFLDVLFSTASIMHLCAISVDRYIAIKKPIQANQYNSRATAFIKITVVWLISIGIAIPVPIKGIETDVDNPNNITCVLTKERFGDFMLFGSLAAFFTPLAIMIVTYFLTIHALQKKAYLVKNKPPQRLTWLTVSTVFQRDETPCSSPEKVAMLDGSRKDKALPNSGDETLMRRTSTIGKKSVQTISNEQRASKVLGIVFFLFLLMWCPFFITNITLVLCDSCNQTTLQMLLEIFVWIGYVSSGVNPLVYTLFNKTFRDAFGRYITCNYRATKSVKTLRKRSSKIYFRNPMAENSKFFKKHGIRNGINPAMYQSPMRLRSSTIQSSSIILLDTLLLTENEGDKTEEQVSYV
T5 sequence (P28223 whole entry): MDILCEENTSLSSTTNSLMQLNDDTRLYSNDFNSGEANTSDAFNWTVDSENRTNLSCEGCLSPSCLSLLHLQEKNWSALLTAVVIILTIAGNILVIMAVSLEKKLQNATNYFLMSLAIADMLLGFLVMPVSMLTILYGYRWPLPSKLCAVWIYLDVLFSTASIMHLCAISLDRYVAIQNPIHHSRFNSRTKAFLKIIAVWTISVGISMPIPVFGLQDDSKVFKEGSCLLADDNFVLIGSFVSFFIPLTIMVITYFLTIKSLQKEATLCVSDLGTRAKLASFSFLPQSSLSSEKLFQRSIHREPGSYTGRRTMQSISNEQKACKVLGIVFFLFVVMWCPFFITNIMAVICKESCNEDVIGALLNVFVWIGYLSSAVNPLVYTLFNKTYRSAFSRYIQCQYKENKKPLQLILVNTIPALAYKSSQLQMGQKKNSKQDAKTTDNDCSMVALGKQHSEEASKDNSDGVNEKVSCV
T2 sequence (P41595 whole entry): as the sequence (P41595 whole entry) above
T3 sequence (P28223 whole entry): as the sequence (P28223 whole entry) above

melting point: > 250 °C (dec.)
SMILES: CC(=O)Nc1ccc2c(c1)N1[C@@H](CNC[C@H]1C)C2.Cl

melting point: 66 °C (dec.)
SMILES: C[C@@H]1CNC[C@H]2Cc3ccc(CO)cc3N21.Cl

melting point: 125 °C (dec.)
SMILES: CCCCNC(=O)c1ccc2c(c1)N1[C@@H](CNC[C@H]1C)C2.Cl

The next lines start with the compound.

SMILES: C[C@@H]1CNC[C@H]2Cc3ccc(C(F)(F)F)cc3N21.Cl
melting point: 221 to 224 °C

SMILES: C[C@@H]1CNC[C@@H]2Cc3ccc(C(F)(F)F)cc3N21.Cl
melting point: 245 to 250 °C (dec.)

SMILES: Cc1cc2c(cc1C(F)(F)F)N1[C@H](CNC[C@H]1C)C2.Cl
melting point: 200 to 205 °C

SMILES: O=C1OCCN1CN1CCN2c3cccc(Br)c3C[C@@H]2C1 [Example 3, (10aR)-3-(9-Bromo-3,4,10,10a-tetrahydro-1H-pyrazino[1,2-a]indol-2-ylmethyl)-oxazolidin-2-one]
pKi [1]: 7.59 | pKi [2]: 6.96 | pKi [3]: 6.64

SMILES: C[C@@H]1CNC[C@H]2Cc3ccc(Cl)cc3N21 [Example 8, (4R,10aR)-7-Chloro-4-methyl-1,2,3,4,10,10a-hexahydro-pyrazino[1,2-a]indole]
pEC50 ([4]; FLIPR, CHO cells): 9.40 | h5-HT2c Relative Efficacy (%) [4, 7]: 97% | pEC50 ([5]; FLIPR, CHO cells): 7.72 | h5-HT2A Relative Efficacy (%) [5, 7]: 60% | pEC50 ([6]; FLIPR): 8.47 | h5-HT2B Relative Efficacy (%) [6, 7]: 62%
